# According to patent US20120190579A1, “Functionalisation of Solid Substrates” (priority 2009, published 2012):
# Columns and labels:
# [1] = biological target: neutravidin-coated agarose beads (Gallus gallus, UniProt P02701); test: Pull-down and release of biotinylated protein adduct on neutravidin coated agarose beads; details: release with β-mercaptoethanol (25 mM) 2 h at 37° C.; densitometry vs protein series dilution
# Experimental: Protein/biotin-PEG-bromomaleimide adduct (200 μL) and unmodified model protein (200 μL) were washed independently with PBS buffer (3×500 μL) in a concentrator (Vivaspin, cut off 10 k) yielding protein solutions (300 μL) (In). For each of the protein solutions obtained, neutravidin-coated agarose beads (750 μL of 50% aqueous slurry) were washed with PBS (2×500 μL). Protein solution (300 μL) was then added to the beads and the mixture incubated at 4° C. for 30 mins. The mixture was centrifuged and the flow through (FT) collected. The beads were washed with PBS (2×500 μL) and both wash fractions collected (W1 and W2). Protein was released from the beads by incubation in PBS (300 μL) containing β-mercaptoethanol (25 mM) for 2 h at 37° C. The sample was centrifuged and the eluant (El) containing cleaved GrB2-SH2 domain L111C collected.
# The amount of protein recovered was determined as 44% by comparison with a protein series dilution via densitometry. However, correcting for irreversibly physisorbed protein (determined using the unmodified protein control) the corrected recovery was 71%.
# [2] = biological target: T1, human somatostatin receptor 2 (Homo sapiens, UniProt P30874); test: Whole cell patch-clamp current recordings of bridged somatostatin analogues; type: cell-based; details: Pertussis toxin 100 ng/ml overnight; Tertiapin 100 nM
# T1 construct: host or cells: HEK293 cells stably expressing Kir3.1 and Kir3.2A
# T1 sequence (P30874 whole entry): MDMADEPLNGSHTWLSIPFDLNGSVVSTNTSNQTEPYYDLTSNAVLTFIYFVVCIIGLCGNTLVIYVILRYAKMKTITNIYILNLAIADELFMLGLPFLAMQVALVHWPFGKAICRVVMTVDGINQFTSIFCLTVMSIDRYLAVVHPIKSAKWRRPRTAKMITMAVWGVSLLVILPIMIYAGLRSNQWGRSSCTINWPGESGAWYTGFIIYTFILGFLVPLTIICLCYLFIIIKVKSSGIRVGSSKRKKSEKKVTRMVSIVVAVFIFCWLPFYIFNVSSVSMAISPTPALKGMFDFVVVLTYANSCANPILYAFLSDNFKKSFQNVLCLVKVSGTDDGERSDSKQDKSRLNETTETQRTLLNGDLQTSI
Molecule,melting point [°C],further results
O=C1C=C(Br)C(=O)N1,148 to 151,
CN1C(=O)C=C(Br)C1=O,77 to 79,
COC(=O)[C@H](CSC1=CC(=O)NC1=O)NC(=O)OC(C)(C)C,145 to 147,
COC(=O)[C@H](CSC1=CC(=O)N(C)C1=O)NC(=O)OC(C)(C)C,101 to 103,
O=C1NC(=O)C23NCC[C@H]2C[C@H]13 (some centres unmarked),110 to 113,
O=C1CC2(SCCS2)C(=O)N1,112 to 115,
CC(C)(C)OC(=O)NCCOCCOCCNC(=O)CCCC[C@@H]1SC[C@@H]2NC(=O)N[C@@H]21 (stereo in doubt),106 to 108,
O=C(CCCC[C@@H]1SC[C@@H]2NC(=O)N[C@@H]21)NCCOCCOCCN1C(=O)C=C(Br)C1=O (stereo in doubt),95 to 98,
O=C(CCCC[C@@H]1SC[C@@H]2NC(=O)N[C@@H]21)NCCOCCOCCN1C(=O)C(Br)=C(Br)C1=O (stereo in doubt),100 to 102,
GrB2-SH2 Domain L111C/Biotin-PEG-bromomaleimide Adduct,,amount of protein recovered [1]: 44%
Pertussis toxin,,GIRK currents after treatment of cells with inhibitor (control) [2]: currents were largely inhibited
Tertiapin Q,,GIRK currents after treatment of cells with inhibitor (control) [2]: currents were largely inhibited

# Continued, in another order:
melting point [°C],Molecule,further results
68 to 76,C=CCCNC1=CC(=O)NC1=O,
238 to 241,O=C1NC(=O)C(I)=C1I,
46 to 50,O=C1NC(=O)C(SCCO)=C1SCCO,
70 to 72,O=C1NC(=O)C(Sc2ccccn2)=C1Sc1ccccn1,
99 to 101,CCCCCCSC1=CC(=O)NC1=O,
